Reference: patent publication US10369138B2, “Monobactam organic compounds for the treatment of bacterial infections” (Novartis AG, priority 2014, dated 2019)
≈ marks a conversion by molar mass, not a printed value.

How the values were obtained:
E. coli strain 25922 = assay: MIC by broth microdilution, E. coli strain 25922; format: cell-based; conditions: Escherichia coli, 25922, E. coli strain 25922; read-out: Ec 25922 (MIC)
Experimental: (§1) Bacterial isolates were cultivated from −70° C. frozen stocks by two consecutive overnight passages at 35° C. in ambient air on 5% blood agar (Remel, Lenexa, Kans.). Quality control and P. aeruginosa ATCC 27853) is from the American Type Culture Collection (ATCC; Rockville, Md.) and PAO1 was received from Dr. K. Poole.
Minimal Inhibitory Concentrations (MICs) were determined by the broth microdilution method in accordance with Clinical and Laboratories Institute (CLSI) guidelines. In brief, fresh overnight bacterial cultures were suspended in sterile saline, and adjusted to a 0.5 McFarland turbidity standard. Bacterial suspensions were then diluted in cation adjusted Mueller-Hinton Broth (MHB II; BBL) to yield a final inoculum of approximately 5×10^5 colony-forming units (CFU)/mL. A master plate of antibiotics was prepared at a concentration equivalent to hundred-fold the highest desired final concentration in 100% dimethyl sulfoxide (DMSO). The master antibiotic plate was then diluted by serial twofold dilution with a multichannel pipette. The resulting dilution series of compounds were diluted 1:10 with sterile water leading to a 10% DMSO final concentration. A volume of 10 μL of the drug dilution series was transferred to 96-well assay plates. Assay plates were inoculated with 90 μL of bacterial suspensions and incubated at 35-37° C. for 20 hrs. The assay plates were read using a microtiter plate reader (Molecular Devices) at 600 nm as well as by visual observation with a reading mirror. The lowest concentration of the compound that prevented visible growth was recorded as the MIC. Performance of the assay was monitored by testing aztreonam against laboratory quality control strains in accordance with guidelines of the CLSI.

E. coli containing KPC-2 = assay: MIC by broth microdilution, E. coli containing KPC-2 (Ec KPC2 Iso); format: cell-based; conditions: Escherichia coli, read-out: Ec KPC2 Iso (MIC), E. coli containing KPC-2 (carbapenemase from Klebsiella pneumoniae)
Experimental: as §1
Strain NB27273 (BW25113 pspB::Km^r) was obtained from the Keio transposon insertion collection. The strain has the pspB gene replaced by a kanamycin resistance marker (BW25113 pspB::Km^r). This strain was cured of the transposon in pspB via FLP recombinase using published methodology. The resulting strain, BW25113 pspB, was used as a host for multicopy vectors expressing key β-lactamases. Multicopy plasmids directing constitutive expression of β-lactamases were established as follows: Synthetic, codon optimized genes encoding E. coli KPC2 and SHV12 β-lactamases were made by DNA2.0 (Palo Alto, Calif.). Each of the synthetic fragments were designed to contain NotI and NcoI restriction sites at their termini, allowing ligation into a NotI/NcoI digested pET28a(+) derivative for protein expression. […] The codon optimized nucleotide sequences and relevant primer recognition information is shown below:
The PCR products were then digested with XhoI and EcoRI and ligated into similarly digested plasmid pAH63-pstS(BlaP). Plasmid pAH63-pstS(BlaP) is a derivative of plasmid pAH63 (J Bacteriol: 183(21): 6384-6393) made by cloning the TEM-1 (bla) promoter and signal peptide encoding region from plasmid pBAD (J Bacteriol. 1995 July 177(14):4121-30) into plasmid pAH63. This fragment was PCR amplified from pBAD using primer pair E192 (ttca[…]) (SEQ ID NO:13) and E194 ([…]) (SEQ ID NO:14), digested with PstI and BamHI and inserted into similarly digested plasmid pAH63. Therefore, expression of β-lactamases from pAH63-pstS(BlaP) based constructs is constitutive and the signal sequence is provided to direct these proteins to the periplasm. Plasmid pAH63 based vectors are used for insertion into the genome in single copy, however, to provide higher expression levels to allow more sensitive detection of the susceptibility of compounds to the β-lactamases, the expression inserts contained in these vectors were moved to the replicative multicopy vector pBAD-Kan (J Bacteriol. 1995 July 177(14):4121-30). To accomplish this, the inserts encompassing the β-lactamase genes, with the associated TEM promoter and signal sequences, were PCR amplified from their corresponding vectors using primer E269 (ccg[…]) (SEQ ID NO:15) and E202 (aatc[…]) (SEQ ID NO:16) for the KPC2 construct and E204 (aatc[…]) (SEQ ID NO:17) for the SHV12 construct. These fragments were then digested with XbaI and EcoRI, and each was inserted into pBAD18-kan that had been digested with the same enzymes to generate a pair of multicopy vectors expressing KPC2 and SHV12 respectively. These vectors were transformed into BW25113 pspB to generate strains NB27273-CDY0033 (expressing KPC2) and NB27273-CDY0030 (expressing SHV12). The pBAD18-kan vector also contains the TEM promoter region and signal sequence, (but lacks any intact β-lactamase genes) and was transformed into BW25113 pspB using standard protocols to generate the control strain NB27273-CDY0026. Expression of the β-lactamases was confirmed by verifying decreased susceptibility to example test antibiotics that are known substrates of KPC2 or SHV12. Susceptibility Testing
Minimal Inhibitory Concentrations (MICs) were determined by the broth microdilution method in accordance with Clinical and Laboratories Institute (CLSI) guidelines. In brief, fresh overnight bacterial cultures were suspended in sterile saline, and adjusted to a 0.5 McFarland turbidity standard. Bacterial suspensions were then diluted in cation adjusted Mueller-Hinton Broth (MHB II; BBL) to yield a final inoculum of approximately 5×10^5 colony-forming units (CFU)/mL. […]

Compound `CC(C)(O/N=C(\C(=O)N[C@@H]1C(=O)N(S(=O)(=O)O)[C@@H]1Cn1ccccc1=O)c1csc(N)n1)C(=O)O` [Example 15, 2-(((Z)-(1-(2-aminothiazol-4-yl)-2-oxo-2-(((3S,4R)-2-oxo-4-((2-oxopyridin-1(2H)-yl)methyl)-1-sulfoazetidin-3-yl)amino)ethylidene)amino)oxy)-2-methylpropanoic acid] has an MIC (E. coli strain 25922) of 16 µg/mL (≈ 30.3 µM) and an MIC (E. coli containing KPC-2) of 8 µg/mL (≈ 15.1 µM).
Compound `CC(C)(O/N=C(\C(=O)N[C@@H]1C(=O)N(S(=O)(=O)O)[C@@H]1Cn1cncn1)c1nsc(N)n1)C(=O)O` [Example 16, 2-(((Z)-(2-(((2R,3S)-2-((1H-1,2,4-triazol-1-yl)methyl)-4-oxo-1-sulfoazetidin-3-yl)amino)-1-(5-amino-1,2,4-thiadiazol-3-yl)-2-oxoethylidene)amino)oxy)-2-methylpropanoic acid] has an MIC (E. coli strain 25922) of 4 µg/mL (≈ 7.94 µM) and an MIC (E. coli containing KPC-2) of 2 µg/mL (≈ 3.97 µM).
Work on `Nc1nc(/C(=N/OCC(=O)O)C(=O)N[C@@H]2C(=O)N(S(=O)(=O)O)[C@@H]2Cn2cncn2)cs1` [Example 17, 2-(((Z)-(2-(((2R,3S)-2-((1H-1,2,4-triazol-1-yl)methyl)-4-oxo-1-sulfoazetidin-3-yl)amino)-1-(2-aminothiazol-4-yl)-2-oxoethylidene)amino)oxy)acetic acid] yielded an MIC (E. coli strain 25922) of 0.5 µg/mL (≈ 1.05 µM) and an MIC (E. coli containing KPC-2) of 0.25 µg/mL (≈ 0.527 µM).
For `Nc1nc(/C(=N/OC2(C(=O)O)CC2)C(=O)N[C@@H]2C(=O)N(S(=O)(=O)O)[C@@H]2Cn2cncn2)cs1` [Example 18, 1-(((Z)-(2-(((2R,3S)-2-((1H-1,2,4-triazol-1-yl)methyl)-4-oxo-1-sulfoazetidin-3-yl)amino)-1-(2-aminothiazol-4-yl)-2-oxoethylidene)amino)oxy)cyclopropanecarboxylic acid], the MIC (E. coli strain 25922) was 0.5 µg/mL (≈ 0.999 µM) and the MIC (E. coli containing KPC-2) was 0.25 µg/mL (≈ 0.5 µM).
Work on `NCc1cnn(C[C@@H]2[C@H](NC(=O)/C(=N\OC3(C(=O)O)CC3)c3csc(N)n3)C(=O)N2S(=O)(=O)O)n1` [Example 19, 1-(((Z)-(2-(((2R,3S)-2-((4-(aminomethyl)-2H-1,2,3-triazol-2-yl)methyl)-4-oxo-1-sulfoazetidin-3-yl)amino)-1-(2-aminothiazol-4-yl)-2-oxoethylidene)amino)oxy)cyclopropanecarboxylic acid] yielded an MIC (E. coli strain 25922) of 0.25 µg/mL (≈ 0.472 µM) and an MIC (E. coli containing KPC-2) of 0.25 µg/mL (≈ 0.472 µM).
In the case of `Nc1nc(/C(=N/OCC(=O)O)C(=O)N[C@@H]2C(=O)N(S(=O)(=O)O)[C@@H]2CN2CCOC2=O)cs1` [Example 21, 2-(((Z)-(1-(2-aminothiazol-4-yl)-2-oxo-2-(((3S,4R)-2-oxo-4-((2-oxooxazolidin-3-yl)methyl)-1-sulfoazetidin-3-yl)amino)ethylidene)amino)oxy)acetic acid], the MIC (E. coli strain 25922) was 0.25 µg/mL (≈ 0.508 µM) and the MIC (E. coli containing KPC-2) was 0.5 µg/mL (≈ 1.02 µM).
`C[C@@H]1CN(C[C@@H]2[C@H](NC(=O)/C(=N\OC(C)(C)C(=O)O)c3csc(N)n3)C(=O)N2S(=O)(=O)O)C(=O)O1` [Example 23, 2-(((Z)-(1-(2-aminothiazol-4-yl)-2-(((2R,3S)-2-(((R)-5-methyl-2-oxooxazolidin-3-yl)methyl)-4-oxo-1-sulfoazetidin-3-yl)amino)-2-oxoethylidene)amino)oxy)-2-methylpropanoic acid] gave an MIC (E. coli strain 25922) of 2 µg/mL (≈ 3.74 µM) and an MIC (E. coli containing KPC-2) of 1 µg/mL (≈ 1.87 µM).
Compound `CC(C)(O/N=C(\C(=O)N[C@@H]1C(=O)N(S(=O)(=O)O)[C@@H]1CN1C[C@@H](CNC(=N)N)OC1=O)c1csc(N)n1)C(=O)O` [Example 24, 2-(((Z)-(1-(2-aminothiazol-4-yl)-2-(((2R,3S)-2-(((R)-5-(guanidinomethyl)-2-oxooxazolidin-3-yl)methyl)-4-oxo-1-sulfoazetidin-3-yl)amino)-2-oxoethylidene)amino)oxy)-2-methylpropanoic acid] has an MIC (E. coli strain 25922) of 0.25 µg/mL (≈ 0.423 µM) and an MIC (E. coli containing KPC-2) of 1 µg/mL (≈ 1.69 µM).
In the case of `NC[C@@H]1CN(C[C@@H]2[C@H](NC(=O)/C(=N\OC3(C(=O)O)CC3)c3csc(N)n3)C(=O)N2S(=O)(=O)O)C(=O)O1` [Example 25, 1-(((Z)-(2-(((2R,3S)-2-(((R)-5-(aminomethyl)-2-oxooxazolidin-3-yl)methyl)-4-oxo-1-sulfoazetidin-3-yl)amino)-1-(2-aminothiazol-4-yl)-2-oxoethylidene)amino)oxy)-cyclopropanecarboxylic acid], the MIC (E. coli strain 25922) was 0.125 µg/mL (≈ 0.228 µM) and the MIC (E. coli containing KPC-2) was ≤ 0.06 µg/mL.
With `N=C(N)NC[C@@H]1CN(C[C@@H]2[C@H](NC(=O)/C(=N\OC3(C(=O)O)CC3)c3csc(N)n3)C(=O)N2S(=O)(=O)O)C(=O)O1` [Example 26, 1-(((Z)-(1-(2-aminothiazol-4-yl)-2-(((2R,3S)-2-(((R)-5-(guanidinomethyl)-2-oxooxazolidin-3-yl)methyl)-4-oxo-1-sulfoazetidin-3-yl)amino)-2-oxoethylidene)amino)oxy)-cyclopropanecarboxylic acid] the MIC (E. coli strain 25922) was 0.125 µg/mL (≈ 0.212 µM) and the MIC (E. coli containing KPC-2) was ≤ 0.06 µg/mL.
In the case of `NCc1cn(C[C@@H]2[C@H](NC(=O)/C(=N\OC3(C(=O)O)CC3)c3csc(N)n3)C(=O)N2S(=O)(=O)O)nn1` [Example 27, 1-(((Z)-(2-(((2R,3S)-2-((4-(aminomethyl)-1H-1,2,3-triazol-1-yl)methyl)-4-oxo-1-sulfoazetidin-3-yl)amino)-1-(2-aminothiazol-4-yl)-2-oxoethylidene)amino)oxy)cyclopropanecarboxylic acid], the MIC (E. coli strain 25922) was ≤ 0.06 µg/mL and the MIC (E. coli containing KPC-2) was 0.125 µg/mL (≈ 0.236 µM).
In the case of `C[C@H](O/N=C(\C(=O)N[C@@H]1C(=O)N(S(=O)(=O)O)[C@@H]1Cn1cncn1)c1csc(N)n1)C(=O)O` [Example 29, (S)-2-(((Z)-(2-(((2R,3S)-2-((1H-1,2,4-triazol-1-yl)methyl)-4-oxo-1-sulfoazetidin-3-yl)amino)-1-(2-aminothiazol-4-yl)-2-oxoethylidene)amino)oxy)propanoic acid], the MIC (E. coli strain 25922) was 0.25 µg/mL (≈ 0.512 µM) and the MIC (E. coli containing KPC-2) was 1 µg/mL (≈ 2.05 µM).
With `C[C@@H](O/N=C(\C(=O)N[C@@H]1C(=O)N(S(=O)(=O)O)[C@@H]1Cn1cncn1)c1csc(N)n1)C(=O)O` [Example 30, (R)-2-(((Z)-(2-(((2R,3S)-2-((1H-1,2,4-triazol-1-yl)methyl)-4-oxo-1-sulfoazetidin-3-yl)amino)-1-(2-aminothiazol-4-yl)-2-oxoethylidene)amino)oxy)propanoic acid] the MIC (E. coli strain 25922) was 1 µg/mL (≈ 2.05 µM) and the MIC (E. coli containing KPC-2) was 1 µg/mL (≈ 2.05 µM).
`Nc1nc(/C(=N/OC2(C(=O)O)CCC2)C(=O)N[C@@H]2C(=O)N(S(=O)(=O)O)[C@@H]2Cn2cncn2)cs1` [Example 32, 1-(((Z)-(2-(((2R,3S)-2-((1H-1,2,4-triazol-1-yl)methyl)-4-oxo-1-sulfoazetidin-3-yl)amino)-1-(2-aminothiazol-4-yl)-2-oxoethylidene)amino)oxy)cyclobutanecarboxylic acid] gave an MIC (E. coli strain 25922) of 2 µg/mL (≈ 3.89 µM) and an MIC (E. coli containing KPC-2) of 1 µg/mL (≈ 1.94 µM).
